In patent US8536307B2, “Anticalins” (Pieris AG, priority 1997, dated 2013):

Tests used:
[1] = target: anticalin FluC, mutein of Pieris brassicae bilin-binding protein (Bbp): Asn34Ser, Ser35Lys, Val36Asn, Glu37Gly, Gly40Arg, Asn58Arg, His60Thr, Ile69Gln, Leu88Arg (Pieris brassicae, UniProt P09464, E52G/F142H/F83V/G55R/H75T/I84Q/K102S/K110R/K131R/K150M/L103R/N112G/N16D/N36Q/N49S/N73R/Q140L/S50K/V108K/V51N/Y105V/Y129R); conditions: fluorescence titration, excitation 280 nm, emission 340 nm, 1 μM anticalin, PBS with 1 mM EDTA, pH 7.4, 25° C.; [P]t additionally fitted as a free parameter
[2] = Fluorescence titration (decrease of intrinsic protein fluorescence) with ligand fluorescein; type: binding; conditions: measurement for comparison, fluorescein ligands
Description: The ligand-binding characteristics of the anticalins, were then determined by fluorescence titration. Here, the decrease in the intrinsic tyrosine and tryptophan fluorescence of the protein upon complex formation with the ligand was measured. The measurements were made with a fluorescence photometer (MS III, Photon Technology International Inc.) at an excitation wavelength of 280 nm (slit width 5 nm) and emission wavelength of 340 nm (slit width 10 nm). Fluorescein, 4-amino-fluorescein as well as its conjugate with glutaric acid from Example 2 were used as ligands.
PBS with addition of 1 mM EDTA, pH 7.4 (adjusted with NaOH) served as buffer system. […] For FluA and Bbp, the corrected calculated extinction coefficients in the presence of guanidinium chloride according to Gill and von Hippel (Anal. Biochem. 182 (1989), 319-326) of 59755 M^−1 cm^−1 (FluA) as well as 54150 M^−1 cm^−1 (Bbp) were used.
For the measurement, 2 ml of the anticalin solution was applied in a quartz cuvette equipped with a stirring bar and thermostatted at 25° C. in the sample holder of the photometer. […] After every titration step the sample was incubated for 1 minute with stirring for equilibration, and the fluorescence signal was measured as an average value over 10 s. […]
[formula] Here, F is the normalized fluorescence intensity and [P]t the concentration of the anticalin. […]

[3] = target: biotinylated synthetic hepatitis C-peptide epitope, peptide fragment no. 59 from the surface protein NS4 of HCV (SEQ ID NO:13) (Hepatitis C virus genotype 1a, UniProt P27958); experiment: Sandwich-ELISA for detection of hepatitis C peptide epitope; conditions: ranking of signal strength
Description: For the ELISA, the wells in a microtiter plate (ELISA-STRIP, 2×8 wells, KO, F-form, high binding capacity, Greiner) were each filled with 200 μl of a solution of 20 mg/ml HSA in 50 mM NaHCO3 pH 9.6 and were incubated for 1 hour at RT. After removal of the solution, the unoccupied binding sites were saturated with 200 μl 3% w/v BSA in PBS with 0.5% v/v Tween 20 for 1 hour. After washing three times with PBST, 50 μl of the undiluted periplasmic protein extract were filled into the respective first well of a row. 50 μl PBS were first placed into each of the subsequent wells of each row. 50 μl of the periplasmic protein extract were then pipetted into the respective second well, were mixed, and, starting from this, 1:2 dilutions in the subsequent wells were prepared in a stepwise manner. The periplasmic protein extract with the Bbp, which was made using pBBP22 as expression plasmid, served as a control.
After 1 hour incubation at RT washing followed three times with PBST, followed by pipetting of 200 μl of the ligand solution (SEQ ID NO:13, 1 μM in PBST) into each well. […] To this end, 100 μl of a solution of 0.5 mg/ma p-nitrophenylphosphate (Amresco) in AP-buffer were placed in each well and product formation was measured by absorption at 405 nm in a SpectraMax 250 photometer (Molecular Devices) as dA/dt number.

Chain of UniProt P09464 (P09464 other isoform, or with tags, fused parts or gaps with the stated changes): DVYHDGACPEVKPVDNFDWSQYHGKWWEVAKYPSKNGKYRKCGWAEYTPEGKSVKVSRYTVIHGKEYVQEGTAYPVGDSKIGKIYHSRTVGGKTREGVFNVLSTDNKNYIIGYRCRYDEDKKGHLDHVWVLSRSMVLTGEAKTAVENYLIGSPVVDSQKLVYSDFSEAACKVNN

| Molecule | Dissociation constant (Kd) [1] [nM] | sandwich-ELISA signal in comparison between anticalins [3] | also measured |
| --- | --- | --- | --- |
| Nc1ccc2c(c1)C(=O)OC21c2ccc(O)cc2Oc2cc(O)ccc21 [4-Aminofluorescein, 4-amino-fluorescein] | 299 ± 41 | – | – |
| O=C(O)CCCC(=O)Nc1ccc2c(c1)C(=O)OC21c2ccc(O)cc2Oc2cc(O)ccc21 [4-Glutarylamidofluorescein, 4-glutarylamido-fluorescein] | 78 ± 3 | – | – |
| O=C1OC2(c3ccc(O)cc3Oc3cc(O)ccc32)c2ccccc21 [Fluorescein, fluorescein] | 411 ± 20 | – | – |
| Bbp: Recombinant bilin-binding protein from Pieris brassicae (modified, encoded on pBBP21/pBBP22), produced as a control (protein, left off: small tags and cut ends) DVYHDGACPEVKPVDNFDWSQYHGKWWEVAKYPNSVEKYGKCGWAEYTPEGKSVKVSNYHVIHGKEYFIEGTAYPVGDSKIGKIYHSLTYGGVTKENVFNVLSTDNKNYIIGYYCKYDEDKKGHQDFVWVLSRSMVLTGEAKTAVENYLIGSPVVDSQKLVYSDFSEAACKVNNLAEAKVLANRELDKYGVSDYYKNLINNAKTVEGVKALIDEILAALP | – | – | binding effect in fluorescence titration (dissociation constant) [2]: so weak that a dissociation constant could not be determined |
| HepC4: Anticalin (Bbp mutein) binding hepatitis C peptide epitope, produced as fusion with Strep-Tag II and albumin-binding domain (protein, left off: small tags and cut ends) DVYHDGACPEVKPVDNFDWSQYHGKWWEVAKYPQAPGKYGKCGWAEYTPEGKSVKVSPYNVIHGKEYFAEGTAYPVGDSKIGKIYHSWTGGGLTAEWVFNVLSTDNKNYIIGYPCRYDEDKKGHLDPVWVLSRSMVLTGEAKTAVENYLIGSPVVDSQKLVYSDFSEAACKVNNLAEAKVLANRELDKYGVSDYYKNLINNAKTVEGVKALIDEILAALP | – | followed by HepC4 | – |
| HepC1: Anticalin (Bbp mutein) binding hepatitis C peptide epitope, produced as fusion with Strep-Tag II and albumin-binding domain (protein, left off: small tags and cut ends) DVYHDGACPEVKPVDNFDWSQYHGKWWEVAKYPKTKQKYEKCGWAEYTPEGKSVKVSLYHVIHGKEYFFEGTAYPVGDSKIGKIYHSVTAGGFTSEQVFSVLSTDNKNYIIGYACYYDEDKKGHVDFVWVLSRSMVLTGEAKTAVENYLIGSPVVDSQKLVYSDFSEAACKVNNLAEAKVLANRELDKYGVSDYYKNLINNAKTVEGVKALIDEILAALP | – | strongest | – |
